Legend:
Aβ1-40 = assay: nESI-IM-MS neuropeptide screen for binding with Aβ1-40; details: for Complex formation with Aβ1-40 detected by nESI-IM-MS: 20 μM Aβ1-40, one equivalent of neuropeptide, pH 6.9, 1 h on ice; for Aβ complexes detected by IM-MS: neuropeptide added in large excess in solution
hippocampal neurons = details: μM concentrations; cited from earlier work
metal-free Aβ1-40 = details: read-out: Kd relative to Aβ monomer; absence of metal ions; cited from earlier work

galanin
Complex formation with Aβ1-40 detected by nESI-IM-MS (Aβ1-40): detected

physalaemin [reference compound]
Inhibition of Aβ-induced neurotoxicity (hippocampal neurons): inhibitors of Aβ-induced neurotoxicity

substance P
Complex formation with Aβ1-40 detected by nESI-IM-MS (Aβ1-40): not evident
Aβ complexes detected by IM-MS (Aβ1-40): No Aβ complexes were detected
Inhibition of Aβ-induced neurotoxicity (hippocampal neurons): inhibitors of Aβ-induced neurotoxicity

(–)-epigallocatechin-3-gallate [EGCG]
Kd (metal-free Aβ1-40): ~60 µM

Somatostatin 14
Complex formation with Aβ1-40 detected by nESI-IM-MS (Aβ1-40): not evident
Aβ complexes detected by IM-MS (Aβ1-40): No Aβ complexes were detected

neurotensin
Complex formation with Aβ1-40 detected by nESI-IM-MS (Aβ1-40): not evident
Aβ complexes detected by IM-MS (Aβ1-40): No Aβ complexes were detected
